Reference: paper PMC8879119, “α-Glucosidase Inhibitory Activity and Anti-Adipogenic Effect of Compounds from Dendrobium delacourii” (Molecules, 2022)
Where two headings read alike, the source gives them in different places. Blank lines part the entries; values can stand above or below the compound they belong to.

What was measured:
α-glucosidase [1] = molecular target: T1, α-glucosidase (Saccharomyces cerevisiae, UniProt P53341); experiment: biochemical
T1 construct: purchased Sigma-Aldrich (St. Louis, MO, USA)
T1 sequence (P53341 whole entry): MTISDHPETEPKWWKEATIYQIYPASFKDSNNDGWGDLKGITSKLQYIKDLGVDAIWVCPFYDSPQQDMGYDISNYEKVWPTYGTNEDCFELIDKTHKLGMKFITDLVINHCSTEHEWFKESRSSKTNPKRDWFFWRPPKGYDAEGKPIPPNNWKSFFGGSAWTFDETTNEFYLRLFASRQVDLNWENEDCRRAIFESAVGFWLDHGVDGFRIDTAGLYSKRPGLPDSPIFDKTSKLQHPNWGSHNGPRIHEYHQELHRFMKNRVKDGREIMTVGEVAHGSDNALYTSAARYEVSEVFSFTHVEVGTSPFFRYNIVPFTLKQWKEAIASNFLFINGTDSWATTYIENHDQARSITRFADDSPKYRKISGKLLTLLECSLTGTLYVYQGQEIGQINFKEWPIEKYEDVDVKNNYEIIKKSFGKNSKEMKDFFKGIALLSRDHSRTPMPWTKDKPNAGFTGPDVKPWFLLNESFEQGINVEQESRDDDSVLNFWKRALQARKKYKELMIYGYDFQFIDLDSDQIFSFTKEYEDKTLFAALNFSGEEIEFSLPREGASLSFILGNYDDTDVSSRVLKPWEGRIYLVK
Procedure: In this study, each compound was initially tested at 100 μg/mL.
(§1) Mass spectra were recorded on a Bruker micro TOF mass spectrometer (ESI-MS). NMR spectra were recorded on a Bruker Avance DPX-300FT-NMR spectrometer or a Bruker Avance III HD 500 NMR spectrometer. Vacuum-liquid column chromatography (VLC) and column chromatography (CC) were performed on silica gel 60 (Merck, Kieselgel 60, 70–320 mesh), silica gel 60 (Merck, Kieselgel 60, 230–400 mesh) (Darmstadt, Germany), and Sephadex LH-20 (25–100 μm, Pharmacia Fine Chemical Co. Ltd.) (Piscataway, NJ, USA). […] Mouse embryonic preadipocyte 3T3-L1 cells were acquired from the American Type Culture Collection (ATCC, Manassas, VA, USA). Dulbecco’s modified Eagle medium (DMEM), fetal bovine serum (FBS), penicillin/streptomycin, and L-glutamine were obtained from Gibco (Gaithersburg, MA, USA). Yeast alpha-glucosidase enzyme, p-nitrophenol-α-D-glucopyranoside, isobutylmethylxanthine, dexamethasone, MTT (methyl-thiazolyl-diphenyl-tetrazolium bromide), Hoechst33342, propidium iodide, dimethylsulfoxide (DMSO), and oil red O were purchased from Sigma-Aldrich (St. Louis, MO, USA). Insulin was obtained from Himedia (Mumbai, India). The radio-immunoprecipitation assay (RIPA) buffer, chemiluminescent substrates, and the bicinchoninic acid (BCA) protein assay kit were from Thermo Scientific (Rockford, IL, USA), and the nitrocellulose membranes were from Bio-Rad Laboratories (Hercules, CA, USA). All primary and secondary antibodies were purchased from Cell Signaling Technology (Danvers, MA, USA). Oxyresveratrol was provided by Prof. Kittisak Likhitwitayawuid.
The assay was based on the inhibition in the sample of α-glucosidase enzyme, which can release p-nitrophenol (PNP) from p-nitrophenyl-α-D-glucoside (PNPG) by hydrolysis. […] For IC50 determination, twofold serial dilution was performed for each sample. Each experiment was accomplished in triplicate. Data are expressed as mean ± SD.

α-glucosidase [2] = molecular target: T1, α-glucosidase; experiment: biochemical; type: biochemical; settings: for type of enzyme inhibition: Lineweaver–Burk plots; for Ki: from secondary plot of slopes versus inhibitor concentration, read-out: Ki (inhibitor constant)
Procedure: The experiment was performed by using Lineweaver–Burk plots of the reciprocal of velocity (1/V) against the reciprocal of substrate concentration (1/[S]) (Figure 2). […] A secondary plot of each compound was then constructed to evaluate the inhibition constant (Ki).
as §1
The kinetic study of enzyme inhibition was analyzed by the double reciprocal Lineweaver–Burk plot (1/V versus 1/[S]). […] The reaction was monitored every 5 min for a total time of 25 min and measured at 405 nm by a microplate reader. Each experiment was performed in triplicate. The Ki value was estimated by constructing a secondary plot which is plotted by the slopes of the double-reciprocal lines versus inhibitor concentration.

p-GSK3β/GSK3β = experiment: Western blot of p-GSK3β/GSK3β in differentiating 3T3-L1 cells; type: cell-based, Mouse; settings: 20 µM, 38–48 h
Source text: Due to the expression of adipogenic transcription factors also modulated via Akt/GSK3β [46, 47, 48], the alteration of the p-GSK3β/GSK3β level was additionally examined in densifloral B-treated 3T3-L1 cells. The phosphorylation by p-Akt results in the inactivation of the GSK3β degradation complex following the initiation of targeted gene expression.
(§2) After the indicated treatment, 3T3-L1 cells were washed with phosphate-buffered saline (PBS, pH 7.4), then the cell membranes were broken using RIPA buffer supplemented with a protease inhibitor cocktail. After incubation on ice for 45 min, the cell lysates were centrifuged at 12,000 rpm at 4 °C for 15 min to collect the clear supernatant containing cellular protein, which was measured for total protein content using a BCA assay kit. The total protein (30 µg) from each sample was loaded and separated onto 10% sodium dodecyl sulfate-polyacrylamide gel electrophoresis (SDS-PAGE). […] The reactive protein signals exposed with chemiluminescent substrates were captured and quantified using Chemiluminescent ImageQuant LAS 4000 (GE Healthcare Bio-Sciences AB, Björkgatan, Uppsala, Sweden).

p-AMPKβ1 = experiment: Western blot of p-AMPKβ1 in differentiating 3T3-L1 cells; type: cell-based, Mouse; settings: 20 µM, 38 h and 48 h
Source text: (§3) Recent reports indicate that the downregulation of PPARγ and C/EBPα are correlated with the activation of AMPKα/β and ACC [43]. […] The increased expression level of p-ACC/ACC (Figure 5b), p-AMPKα/AMPKα (Figure 5c), and p-AMPKβ1/AMPKβ1/2 (Figure 5f) was correlated with suppression of PPARγ and C/EBPα protein expression (Figure 4e) as well as lipid accumulation in differentiated 3T3-L1 cells (Figure 4a). The results presented in this study correspond with the evidence of the stimulation of AMPK and ACC protein being associated with the inhibition of 3T3-L1 adipocyte differentiation.
as §2

C/EBPα = experiment: Western blot of C/EBPα in differentiating 3T3-L1 cells; type: cell-based, Mouse; settings: 20 µM, 38 h and 48 h, versus untreated control
Procedure: (§4) Adipogenesis involves a network of transcription factors that contribute to adipocyte differentiation and lipid accumulation. Although the adipogenic gene CCAAT-enhancer-binding protein beta (C/EBPβ) is expressed soon after exposure to the adipogenic inducers, the upregulation of PPARγ and C/EBPα is acquired after 36–48 h of the induction. In this regard, the translational level of PPARγ and C/EBPα was examined to elucidate the anti-adipogenic mechanism in preadipocyte 3T3-L1 cells cultured with 20 µM densifloral B (3) at both early (38 h) and late (48 h) stage. Western blot analysis indicated the prolong expression of PPARγ and C/EBPα, the adipogenic transcription factors, in 3T3-L1 cells from early until late stage of adipogenic process. […]
as §2, with “kit.” for “kit. The total protein (30 µg) from each sample was loaded and separated onto 10% sodium dodecyl sulfate-polyacrylamide gel electrophoresis (SDS-PAGE).”

p-Akt = experiment: Western blot of p-Akt in differentiating 3T3-L1 cells; type: cell-based, Mouse; settings: 20 µM, 38–48 h
Source text: as §3, §2

PPARγ = experiment: Western blot of PPARγ in differentiating 3T3-L1 cells; type: cell-based, Mouse; settings: 20 µM, 38 h and 48 h, versus untreated control
Procedure: as §4
as §2, with “kit.” for “kit. The total protein (30 µg) from each sample was loaded and separated onto 10% sodium dodecyl sulfate-polyacrylamide gel electrophoresis (SDS-PAGE).”

p-ACC = experiment: Western blot of p-ACC in differentiating 3T3-L1 cells; type: cell-based, Mouse; settings: 20 µM, 38 h and 48 h
Source text: as §3, §2

3T3-L1 cells [3] = experiment: adipocyte differentiation / lipid accumulation by oil red O staining; type: cell-based, Mouse; settings: for IC50: Mus musculus, 3T3-L1, 0–50 µM, oil red O staining, 3T3-L1 cells; for reduction in oil red O staining: differentiated 3T3-L1 cells
Procedure: Mouse embryonic preadipocyte 3T3-L1 cells were cultured in DMEM containing 10% FBS, 100 units/mL of penicillin/streptomycin, and 2 mmol/L of L-glutamine under humidified conditions of 5% CO2 at 37 °C until 70–80% confluence was reached. For differentiation into adipocyte, preadipocyte 3T3-L1 cells were incubated with differentiation media composed of 10% FBS, 0.5 mM isobutylmethylxanthine, 1 μM dexamethasone, and 5 µg/mL insulin in DMEM with or without test compound for 2 days. Then, the differentiation media was replaced with culture media containing 5 µg/mL of insulin. After further incubation for 2 days, the cells were maintained in complete DMEM, which was changed every 2 days until adipocytes containing lipid droplets were observed under microscope.
The lipid droplets presenting in differentiated adipocytes were detected via oil red O staining. After the differentiation process, 3T3-L1 cells were fixed with 10% formalin for 45 min and further incubated with oil red O solution at room temperature for 1 h. After washing with 60% isopropanol for three times, oil red O-stained cells were captured using a Nikon Ts2 inverted optical microscope (Tokyo, Japan). For quantification, cellular oil red O was extracted using absolute isopropanol for measurement of OD at 570 nm by microplate reader (Anthros, Durham, NC, USA). The percentage of oil red O staining was calculated relative to the total protein content determined by BCA assay.

p-AMPKα = experiment: Western blot of p-AMPKα in differentiating 3T3-L1 cells; type: cell-based, Mouse; settings: 20 µM, 38 h and 48 h
Source text: as §3, §2

3T3-L1 cells [4] = experiment: MTT viability assay in preadipocytes; type: cell-based, Mouse; settings: 20 µM, 48 h
Procedure: To evaluate the effect of D. delacourii extracts on cell viability, 3T3-L1 preadipocytes were seeded into 96-well plates at density of 2 × 10^3 cells/well and allowed to attach overnight at 37 °C. Then, the cells were further cultured with extracts (5 μg/mL), compounds (20 μM), or left untreated for 48 h before adding of 0.45 mg/mL MTT solution to assess cell viability. After incubation for 3 h at 37 °C and kept from light, the optical density (OD) of the purple formazan product dissolved in DMSO was measured at 570 nm using a microplate reader (Anthros, Durham, NC, USA). The relative OD ratio of treated to non-treated cells was presented as percentage cell viability.

3T3-L1 cells [5] = experiment: cell death detection by Hoechst33342/propidium iodide costaining; type: cell-based; settings: 20 µM, 48 h
Procedure: The cytotoxicity of D. delacourii extracts was confirmed via cell death detection using costaining of Hoechst33342 and propidium iodide. After 48 h incubation with indicated treatment, the cells were further incubated with nuclear staining solution containing 2 μg/mL of Hoechst33342 and 1 μg/mL of propidium iodide for 30 min. The mode of cell death was observed under a fluorescence microscope (Olympus IX51 with DP70, Olympus Corp., Shinjuku-ku, Tokyo, Japan).

[6] = read-out: α-Glucosidase inhibitory activity IC50
[7] = inhibitor dose 12 μM, substrate 0.25-2.0 mM

Compound: COc1cc(O)c2c(c1-c1c(OC)cc(O)c3c1CCc1cc(O)ccc1-3)CCc1cc(O)ccc1-2 [4,4′,7,7′-tetrahydroxy-2,2′-dimethoxy-9,9′,10,10′-tetrahydro-1,1′-biphenanthrene]
IC50 (α-glucosidase [1]): 18.4 ± 3.4 µM

Compound: C[C@H]1O[C@H](O[C@H]2[C@H](O)[C@@H](O)[C@@H](O[C@H]3[C@H](O)[C@@H](O)C(O)O[C@@H]3CO)O[C@@H]2CO)[C@H](O)[C@@H](O)[C@@H]1N[C@H]1C=C(CO)[C@@H](O)[C@H](O)[C@H]1O (some centres unmarked) [Acarbose, acarbose, reference compound]
type of enzyme inhibition (α-glucosidase [2]): competitive type of inhibition
Km (α-glucosidase [2]; inhibitor dose 465 μM): 4.17 mM
Vmax (α-glucosidase [2]; inhibitor dose 465 μM): 0.10 ∆OD/min
Km (α-glucosidase [2]; inhibitor dose 930 μM): 6.47 mM
Vmax (α-glucosidase [2]; inhibitor dose 930 μM): 0.11 ∆OD/min

Compound: COC1=CC(=O)c2c(ccc3cc(O)ccc23)C1=O [Densifloral B (3), densifloral B]
p-GSK3β/GSK3β expression level (p-GSK3β/GSK3β): significantly lessened
phosphorylated AMPKβ1 (p-AMPKβ1) (p-AMPKβ1): upregulated
expression level of C/EBPα (C/EBPα): restrained
activated Akt (p-Akt) (p-Akt): suppressed
expression level of PPARγ (PPARγ): restrained
phosphorylated ACC (p-ACC) (p-ACC): upregulated
IC50 (3T3-L1 cells [3]): 14.8 ± 1.6 µM
reduction in oil red O staining (3T3-L1 cells [3]; at 20 µM): ~65.2%
phosphorylated AMPKα (p-AMPKα) (p-AMPKα): upregulated
viability / cytotoxicity in 3T3-L1 cells (3T3-L1 cells [4]): no cytotoxicity

Compound: COC1=CC(=O)C2=C(CCc3cc(O)ccc32)C1=O [Ephemeranthoquinone (2), ephemeranthoquinone]
reduction in oil red O staining (3T3-L1 cells [3]; at 20 µM): approximately 64.7%
viability / cytotoxicity in 3T3-L1 cells (3T3-L1 cells [4]): significantly decreased viability

IC50 (α-glucosidase [1]; [6]): 191 ± 6.8 µM
Compound: COc1cc(O)cc(CCc2ccc(O)c(OC)c2)c1 [Gigantol (6), gigantol]

IC50 (α-glucosidase [1]; [6]): 195 ± 9.6 µM
Compound: COc1cc(O)c2c(c1)CCc1cc(O)ccc1-2 [Lusianthridin (8), lusianthridin]

IC50 (α-glucosidase [1]; [6]): 390 ± 9.8 µM
Compound: COc1cc(O)cc2ccc3cccc(O)c3c12 [Moscatin (4), moscatin]

Compound: COc1cc(O)c2c(c1)CCc1cc(O)c(-c3c(OC)cc(O)c4c3CCc3cc(O)ccc3-4)cc1-2 [Phoyunnanin C (11), phoyunnanin C]
IC50 (α-glucosidase [1]; [6]): 12.6 ± 0.9 µM
type of enzyme inhibition (α-glucosidase [2]): non-competitive
Ki (α-glucosidase [2]): 5.97 µM
Vmax (α-glucosidase [2]; [7]): 0.049 ∆OD/min
Vmax (α-glucosidase [2]; inhibitor dose 24 μM, substrate 0.25-2.0 mM): 0.023 ∆OD/min

Compound: COc1cc(O)c2c(c1)CCc1cc(Oc3c(OC)cc(O)c4c3CCc3cc(O)ccc3-4)ccc1-2 [Phoyunnanin E (10), phoyunnanin E]
IC50 (α-glucosidase [1]; [6]): 8.9 ± 0.8 µM
type of enzyme inhibition (α-glucosidase [2]): non-competitive
Ki (α-glucosidase [2]): 5.89 µM
Vmax (α-glucosidase [2]; [7]): 0.049 ∆OD/min
Vmax (α-glucosidase [2]; inhibitor dose 22 μM, substrate 0.25-2.0 mM): 0.024 ∆OD/min

Compound: Oc1cc(O)cc(/C=C/c2ccc(O)cc2O)c1 [oxyresveratrol, reference compound]
cell death (3T3-L1 cells [5]): no change
IC50 (3T3-L1 cells [3]): 21.1 ± 1.5 µM
oil red O staining percentage compared with control (in words) (3T3-L1 cells [3]; at 20 µM): lower oil red O staining percentage
viability / cytotoxicity in 3T3-L1 cells (3T3-L1 cells [4]): no change
